Key:
Assay type in all cases: cell-based
[1] = tested on: OCI-LY10; experiment: In vitro tumor cell proliferation (CellTiter-Glo), OCI-LY10; conditions: Homo sapiens, OCI-Ly10, 72 h; read-out: Growth IC50
Method: (§1) Biological Embodiment 8: Study on Effects of Active Compounds for Inhibiting In Vitro Tumor Cell Proliferation
(§2) Promega CellTiter-Glo cell activity detection kit by luminescence (Promega-G7573).
(§3) Tumor cell lines were cultured in a 5% of CO2 incubator at 37° C. according to respective culture conditions; and periodic passage was performed, and cells positioned in a logarithmic phase were taken for planking.
(§4) 3) 90 μL of cell suspension was added into each well of the culture plate, and a culture solution containing no cell was added into blank control;
(§5) 4) the culture plate was cultured overnight in the 5% of CO2 incubator having relative humidity of 100% at 37° C.
(§6) Preparation of a 400× compound storage plate: the compound was diluted from the maximum concentration gradient to the lowest concentration with DMSO. […]
(§7) The following steps were performed according to the specification of the Promega CellTiter-Glo cell activity detection kit by luminescence (Promega-G7573). […]
(§8) 9) the luminescence signal was detected on the 2104 EnVision plate reader.

[2] = tested on: WSU-DLCL-2; experiment: In vitro tumor cell proliferation (CellTiter-Glo), WSU-DLCL-2; conditions: Homo sapiens, WSUDLCL2; WSU-DLCL-2, 72 h; read-out: Growth IC50
Method: as §1, §2, §3, §4, §5, §6, §7, §8

[3] = tested on: Raji; experiment: In vitro tumor cell proliferation (CellTiter-Glo), Raji; conditions: Homo sapiens, 72 h, read-out: Growth IC50
Method: as §1, §2, §3, §4, §5, §6, §7, §8

[4] = tested on: SU-DHL-10; experiment: In vitro tumor cell proliferation (CellTiter-Glo), SU-DHL-10; conditions: Homo sapiens, SU-DHL10; SU-DHL-10, 72 h; read-out: Growth IC50
Method: as §1, §2, §3, §4, §5, §6, §7, §8

[5] = tested on: B cells; experiment: B cell activation (anti-human IgM, CD69 staining); conditions: concentration of 0.1 uM
Method: Biological Embodiment 3: Influences of In-Vitro Test Compounds on PBMC/B/T Cell Activation
4.3 Isolation of B Cells and T Cells
Cell Isolation Programs Shall Refer to […] Kits
4.4.1 Activation of B Cells
The co-culture system is as follows:
Antibody Staining and Data Analysis
Antibody staining was performed within 24 hours […] according to a standard method.
4.5.1 Activation of PBMC and B Cells
LIVE/DEAD Fixable Violet Dead Cell Stain Kit

[6] = tested on: Jeko-1; experiment: In vitro tumor cell proliferation (CellTiter-Glo), Jeko-1; conditions: Homo sapiens, JeKo-1, 72 h; read-out: Growth IC50
Method: as §1, §2, §3, §4, §5, §6, §7, §8

[7] = tested on: Mino; experiment: In vitro tumor cell proliferation (CellTiter-Glo), Mino; conditions: Homo sapiens, 72 h, read-out: Growth IC50
Method: as §1, §2, §3, §4, §5, §6, §7, §8

[8] = tested on: OCI-LY3; experiment: In vitro tumor cell proliferation (CellTiter-Glo), OCI-LY3; conditions: Homo sapiens, OCI-Ly3, 72 h; read-out: Growth IC50
Method: as §1, §2, §3, §4, §5, §6, §7, §8

How did the IC50 [1] turn out when `C=CC(=O)NN1CCCC(n2nc(-c3ccc(Oc4ccccc4)cc3)c3c(N)ncnc32)C1` (centres unmarked) [Embodiment 6, N-(3-(4-amino-3-(4-phenoxyphenyl)-1H-pyrazolo[3,4-D]pyrimidine-1-yl)-1-piperidyl)-acrylamide] was run?
Its IC50 is 0.006 µM.

And the IC50 [2]?
Its IC50 is 0.921 µM.

And the IC50 [3]?
The IC50 was > 10 µM.

And the IC50 [4]?
The IC50 was > 10 µM.

And the “B cell activity inhibition effect” value [5]?
The value was “obvious B cell activity inhibition effects”.

And the IC50 [6]?
The IC50 was > 10 µM.

What about the IC50 [7] of the same molecule?
Its IC50 is 2.17 µM.

What about the IC50 [8] of the same molecule?
Its IC50 is > 10 µM.
